Data as given in patent publication US20230263822A1, “MODULATION OF FACTOR 11 EXPRESSION” (Ionis Pharmaceuticals, Inc., priority 2008, published 2023).
Strand notation (5' to 3'): a small letter for the sugar, then the base; units joined by * are phosphorothioate-linked, units joined directly phosphodiester-linked; [ ] holds rarer units or linkages, { } end groups; capitals alone tell only the bases. e = 2'-O-(2-methoxyethyl) (MOE); [5mC] = 5-methylcytosine; d = 2'-deoxy (DNA)

What was measured:
[1] = Kidney function, BUN, urine protein to creatinine ratio in cynomolgus monkeys (Example 46); format: in vivo; conditions: for Urine protein/creatinine ratio: day 49
Protocol: (§1) Groups, each consisting of two male and two female monkeys, were injected subcutaneously with 25 mg/kg of ISIS 416850, ISIS 449709, ISIS 445522, ISIS 449710, ISIS 449707, ISIS 449711, ISIS 449708, 416858, and ISIS 445531. Antisense oligonucleotide was administered to the monkeys at 25 mg/kg three times per week for week 1 and 25 mg/kg twice per week for weeks 2 to 8. A control group, consisting of two male and two female monkeys was injected subcutaneously with PBS according to the same dosing regimen. Body weights were taken 14 days and 7 days before the start of treatment and were then measured weekly throughout the treatment period. Blood samples were collected 14 days and 5 days before the start of treatment and subsequently several times during the dosing regimen for PT and aPTT measurements, and measurement of various hematologic factors. On day 55, the monkeys were euthanized by exsanguination while under deep anesthesia, and organs harvested for further analysis.
To evaluate the impact of ISIS oligonucleotides on kidney function, urine samples were collected on different days. […] The ratio of urine protein to creatinine in urine samples after antisense oligonucleotide treatment was also calculated for day 49 and results are presented in Table 156. As observed in Tables 155 and 156, there were no significant increases in any of the kidney metabolic markers after antisense oligonucleotide treatment.

[2] = test system: IL-1β, IL-6, IFN-γ, TNF-α, IL-8, MIP-1α, MCP-1, MIP-1β, RANTES; assay: Cytokine and chemokine assays in cynomolgus monkeys (Example 46); format: in vivo
Protocol: as §1
Blood samples obtained from all monkey groups were sent to Pierce Biotechnology (Woburn, Mass.) for measurements of chemokine and cytokine levels. Levels of IL-1β, IL-6, IFN-γ, and TNF-α were measured using the respective primate antibodies and levels of IL-8, MIP-1α, MCP-1, MIP-1β and RANTES were measured using the respective cross-reacting human antibodies. Measurements were taken 14 days before the start of treatment and on day 55, when the monkeys were euthanized.

[3] = Day −5 (before start of treatment)
[4] = Day −14 (before start of treatment)
[5] = day-14 (before start of treatment)

Substance | BUN levels ([1]; Day 31) [mg/dL] | BUN levels ([1]; Day 55) [mg/dL] | BUN levels [1, 3] [mg/dL] | BUN levels [1, 4] [mg/dL] | Urine protein/creatinine ratio [1] | IFN-γ level ([2]; day 55) [pg/mL] | IL-1ß level ([2]; day 55) [pg/mL] | IL-6 level ([2]; day 55) [pg/mL] | IL-8 level ([2]; day 55) [pg/mL] | MCP-1 level ([2]; day 55) [pg/mL] | MIP-1ß level ([2]; day 55) [pg/mL] | MIP-1α level ([2]; day 55) [pg/mL] | RANTES level ([2]; day 55) [pg/mL] | TNF-α level ([2]; day 55) [pg/mL] | IFN-γ level [2, 5] [pg/mL] | IL-1ß level [2, 5] [pg/mL] | IL-6 level [2, 5] [pg/mL] | IL-8 level [2, 5] [pg/mL] | MCP-1 level [2, 5] [pg/mL] | MIP-1ß level [2, 5] [pg/mL] | other results
ISIS 445522: 5-8-5 or 6-8-6 MOE microwalk gapmer (Table 44) (antisense eG*e[5mC]*eA*e[5mC]*eA*dG*dT*dT*dT*d[5mC]*dT*dG*dG*e[5mC]*eA*eG*eG*e[5mC]) | 22 | 22 | 22 | 23 | 0.01 | 83 | 341 | 2 | 100 | 592 | 63 | 22 | 16154 | 18 | 172 | 188 | 5 | 32 | 297 | 27 | MIP-1α level [2, 5]: 22 pg/mL; RANTES level [2, 5]: 3477 pg/mL; TNF-α level [2, 5]: 16 pg/mL
ISIS 445531: 5-8-5 or 6-8-6 MOE microwalk gapmer (Table 44) (antisense eG*eG*e[5mC]*eA*eT*dT*dG*dG*dT*dG*d[5mC]*dA*d[5mC]*eA*eG*eT*eT*eT) | 20 | 22 | 18 | 22 | 0.08 | 15 | 155 | 1 | 293 | 339 | 84 | 12 | 5935 | 16 | 68 | 101 | 2 | 83 | 317 | 22 | MIP-1α level [2, 5]: 25 pg/mL; RANTES level [2, 5]: 7825 pg/mL; TNF-α level [2, 5]: 9 pg/mL
ISIS 449707: 3-8-3, 4-8-4, 2-10-2, 3-10-3 or 4-10-4 MOE microwalk gapmer (Table 46) (antisense e[5mC]*eA*e[5mC]*eA*dG*dT*dT*dT*d[5mC]*dT*dG*dG*e[5mC]*eA*eG*eG) | 21 | 20 | 21 | 25 | 0.03 | 24 | 97 | 1 | 48 | 264 | 49 | 12 | 1193 | 16 | 34 | 115 | 1 | 106 | 294 | 13 | MIP-1α level [2, 5]: 16 pg/mL; RANTES level [2, 5]: 3014 pg/mL; TNF-α level [2, 5]: 6 pg/mL
ISIS 449708: 3-8-3, 4-8-4, 2-10-2, 3-10-3 or 4-10-4 MOE microwalk gapmer (Table 46) (antisense eA*e[5mC]*eA*dG*dT*dT*dT*d[5mC]*dT*dG*dG*e[5mC]*eA*eG) | 23 | 23 | 23 | 25 | 0.00 | 18 | 131 | 0 | 85 | 409 | 128 | 23 | 4561 | 17 | 27 | 35 | 1 | 184 | 361 | 19 | MIP-1α level [2, 5]: 11 pg/mL; RANTES level [2, 5]: 11666 pg/mL; TNF-α level [2, 5]: 12 pg/mL
ISIS 449709: 3-8-3, 4-8-4, 2-10-2, 3-10-3 or 4-10-4 MOE microwalk gapmer (Table 46) (antisense eG*e[5mC]*eA*e[5mC]*dA*dG*dT*dT*dT*d[5mC]*dT*dG*dG*d[5mC]*eA*eG*eG*e[5mC]) | 20 | 28 | 21 | 22 | 0.05 | 25 | 181 | 0 | 254 | 507 | 47 | 17 | 8958 | 8 | 37 | 137 | 1 | 34 | 290 | 14 | MIP-1α level [2, 5]: 13 pg/mL; RANTES level [2, 5]: 2471 pg/mL; TNF-α level [2, 5]: 9 pg/mL
ISIS 449710: 3-8-3, 4-8-4, 2-10-2, 3-10-3 or 4-10-4 MOE microwalk gapmer (Table 46) (antisense e[5mC]*eA*e[5mC]*dA*dG*dT*dT*dT*d[5mC]*dT*dG*dG*d[5mC]*eA*eG*eG) | 19 | 23 | 19 | 19 | 0.00 | 176 | 286 | 2 | 348 | 474 | 53 | 27 | 22656 | 26 | 1115 | 271 | 7 | 29 | 409 | 18 | MIP-1α level [2, 5]: 20 pg/mL; RANTES level [2, 5]: 1215 pg/mL; TNF-α level [2, 5]: 72 pg/mL
ISIS 449711: 3-8-3, 4-8-4, 2-10-2, 3-10-3 or 4-10-4 MOE microwalk gapmer (Table 46) (antisense eA*e[5mC]*dA*dG*dT*dT*dT*d[5mC]*dT*dG*dG*d[5mC]*eA*eG) | 20 | 23 | 22 | 26 | 0.01 | 22 | 146 | 7 | 110 | 469 | 91 | 17 | 3029 | 31 | 29 | 79 | 2 | 156 | 264 | 24 | MIP-1α level [2, 5]: 20 pg/mL; RANTES level [2, 5]: 3687 pg/mL; TNF-α level [2, 5]: 6 pg/mL
